Test results published in patent US6432959B1, “Inhibitors of farnesyl-protein transferase” (Schering Corporation, priority 1998, dated 2002).
Values joined by “and” are separate entries in the source; they are usually repeats but may differ in a detail not shown here. Equal entries are not always repeated.

How the values were obtained:
[1] = molecular target: T1, partially purified rat brain farnesyl protein transferase (FPT) (Rattus norvegicus, UniProt Q02293+Q04631); experiment: FPT IC50, in vitro enzyme assay (inhibition of Ras-CVLS farnesylation); assay type: biochemical; conditions: inhibition of Ras-CVLS farnesylation by partially purified rat brain FPT; value is a range stated for a group of compounds
T1 construct: partially purified rat brain farnesyl protein transferase (FPT); from tissue; host or cells: rat brain
Experimental: 1. In vitro enzyme assays: FPT IC50 (inhibition of farnesyl protein transferase, in vitro enzyme assay) are determined by the methods disclosed in WO/10515 or WO95/10516.

SMILES: CC(C)(C)NC(=O)N1CCN(Cc2ccccc2)C[C@@H]1C(=O)NCCc1cncn1Cc1ccc(C#N)cc1 [Example 28O, N2-[2-[1-[(4-cyanophenyl)methyl]-1H-imidazol-5-yl]ethyl]-N1-(1,1-dimethylethyl)-4-(phenylmethyl)-1,2(R)-piperazinedicarboxamide]
- IC50 [1]: 0.18 to 21 nM and 0.18 to 1.5 nM
- melting point: 97.8 °C
